Reference: patent US11584765B2 (priority 2017, dated 2023)

Test system: C57BL/6 mice
Assay: animal or person
Type: in vivo
Conditions: Mus musculus, sc, 0.5 h, s.c. administration, 30 min, 55° C. water, read-out: ED50 (mg/kg) at 30 min on C57BL/6 mice in Warm-water Tail-flick Test

Structure (SMILES) | ED50
CC(=O)Nc1ccc(CN2CC[C@@](CCc3ccccc3)([C@@H]3C=CCO3)C2)cc1 (single isomer, unassigned) [Compound 258] | < 10 mg/kg
CC(=O)Nc1ccc(CN2CC[C@@](CCc3ccccc3)([C@H]3C=CCO3)C2)cc1 (single isomer, unassigned) [Compound 259] | < 10 mg/kg
CC(=O)Nc1ccc(CN2CC[C@](CCc3ccccc3)([C@@H]3C=CCO3)C2)cc1 (single isomer, unassigned) [Compound 260] | > 10 mg/kg
CC(=O)Nc1ccc(CN2CC[C@](CCc3ccccc3)([C@H]3C=CCO3)C2)cc1 (single isomer, unassigned) [Compound 261] | > 10 mg/kg
C[C@H](O)[C@]1(CCc2cccs2)CCN(Cc2cccnc2)C1 (single isomer, unassigned) [Compound 422] | < 10 mg/kg
C[C@H](O)[C@@]1(CCc2cccs2)CCN(Cc2cccnc2)C1 (single isomer, unassigned) [Compound 423] | < 10 mg/kg
C[C@@H](O)[C@]1(CCc2cccs2)CCN(Cc2cccnc2)C1 (single isomer, unassigned) [Compound 424] | < 10 mg/kg
CCOC(C)[C@@]1(CCc2cccs2)CCN(C(C)(C)c2ccc(C)nc2)C1 (single isomer, unassigned) [Compound 425, 5-(2-((S)-3-((S or R)-1-ethoxyethyl)-3-(2-(thiophen-2-yl)ethyl)pyrrolidin-1-yl)propan-2-yl)-2-methylpyridine] | < 10 mg/kg
CCOCC1(CCc2cccs2)CCN(Cc2ccc(NC(C)=O)cc2)C1 (stereo in doubt) [Compound 325, (R)-N-(4-((3-(ethoxymethyl)-3-(2-(thiophen-2-yl)ethyl)pyrrolidin-1-yl)methyl)phenyl)acetamide] | < 10 mg/kg
CC(=O)Nc1ccc(CN2CCC(CCc3ccccc3)(c3ncc[nH]3)CC2)cc1 [Compound 1] | > 10 mg/kg
CC(=O)Nc1ccc(CN2CCC(CCc3ccccc3)(c3cccs3)CC2)cc1 [Compound 2] | > 10 mg/kg
CC(=O)Nc1ccc(CN2CCC(CCc3ccccc3)(c3ccsc3)CC2)cc1 [Compound 3] | > 10 mg/kg
CC(=O)Nc1ccc(CN2CCC(CCc3ccccc3)(c3ccccc3)CC2)cc1 [Compound 4] | > 10 mg/kg
CC(=O)Nc1ccc(CN2CCC(CCc3ccccc3)(c3ccccn3)CC2)cc1 [Compound 5] | < 10 mg/kg
CC(=O)Nc1ccc(CN2CCC(CCc3ccccc3)(c3cccnc3)CC2)cc1 [Compound 6] | > 10 mg/kg
CC(=O)Nc1ccc(CN2CCC(CCc3ccccc3)(c3ccncc3)CC2)cc1 [Compound 7] | > 10 mg/kg
CC(=O)Nc1ccc(CN2CCC(CCc3ccccc3)(c3nncs3)CC2)cc1 [Compound 8] | > 10 mg/kg
CC(=O)Nc1ccc(CN2CCC(CCc3ccccc3)(c3nnco3)CC2)cc1 [Compound 9] | > 10 mg/kg
CC(=O)Nc1ccc(CN2CCC(CCc3ccccc3)(c3ncon3)CC2)cc1 [Compound 10] | > 10 mg/kg
CC(=O)Nc1ccc(CN2CCC(CCc3ccccc3)(c3noc(C)n3)CC2)cc1 [Compound 11] | > 10 mg/kg
CC(=O)Nc1ccc(CN2CCC(CCc3ccccc3)(c3nnc(C)o3)CC2)cc1 [Compound 12, N-(4-((4-(5-methyl-1,3,4-oxadiazol-2-yl)-4-phenethylpiperidin-1-yl)methyl)phenyl)acetamide] | > 10 mg/kg
CC(=O)Nc1ccc(CN2CCC(CCc3ccccc3)(c3nnc(C)s3)CC2)cc1 [Compound 13, N-(4-((4-(5-methyl-1,3,4-thiadiazol-2-yl)-4-phenethylpiperidin-1-yl)methyl)phenyl)acetamide] | > 10 mg/kg
CC(=O)Nc1ccc(CN2CCC(Cc3ccccc3)(c3ccccn3)CC2)cc1 [Compound 14, N-(4-((4-benzyl-4-(pyridin-2-yl)piperidin-1-yl)methyl)phenyl)acetamide] | > 10 mg/kg
CC(=O)Nc1ccc(CN2CCC(CCCc3ccccc3)(c3ccccn3)CC2)cc1 [Compound 15, N-(4-((4-(3-phenylpropyl)-4-(pyridin-2-yl)piperidin-1-yl)methyl)phenyl)acetamide] | > 10 mg/kg
CC(=O)Nc1ccc(CN2CCC(CCc3ccccn3)(c3ccccn3)CC2)cc1 [Compound 16, N-(4-((4-(pyridin-2-yl)-4-(2-(pyridin-2-yl)ethyl)piperidin-1-yl)methyl)phenyl)acetamide] | > 10 mg/kg

Structure (SMILES) | ED50
CC(=O)N(C)c1ccc(CN2CCC(CCc3ccccc3)(c3ccccn3)CC2)cc1 [Compound 17, N-methyl-N-(4-((4-phenethyl-4-(pyridin-2-yl)piperidin-1-yl)methyl)phenyl)acetamide] | > 10 mg/kg
CC(C)C(=O)Nc1ccc(CN2CCC(CCc3ccccc3)(c3ccccn3)CC2)cc1 [Compound 18, N-(4-((4-phenethyl-4-(pyridin-2-yl)piperidin-1-yl)methyl)phenyl)iso-butyramide] | > 10 mg/kg
CCC(=O)Nc1ccc(CN2CCC(CCc3ccccc3)(c3ccccn3)CC2)cc1 [Compound 19, N-(4-((4-phenethyl-4-(pyridin-2-yl)piperidin-1-yl)methyl)phenyl)pro-pionamide] | > 10 mg/kg
CCCCC(=O)Nc1ccc(CN2CCC(CCc3ccccc3)(c3ccccn3)CC2)cc1 [Compound 20, N-(4-((4-phenethyl-4-(pyridin-2-yl)piperidin-1-yl)methyl)phenyl)pen-tanamide] | > 10 mg/kg
CC(C)CCC(=O)Nc1ccc(CN2CCC(CCc3ccccc3)(c3ccccn3)CC2)cc1 [Compound 21, 4-methyl-N-(4-((4-phenethyl-4-(pyridin-2-yl)piperidin-1-yl)methyl)phenyl)pen-tanamide] | > 10 mg/kg
CCOC(=O)Nc1ccc(CN2CCC(CCc3ccccc3)(c3ccccn3)CC2)cc1 [Compound 22, ethyl 4-((4-phenethyl-4-(pyridin-2-yl)piperidin-1-yl)methyl)phenylcarbamate] | > 10 mg/kg
NC(=O)Nc1ccc(CN2CCC(CCc3ccccc3)(c3ccccn3)CC2)cc1 [Compound 23, 1-(4-((4-phenethyl-4-(pyridin-2-yl)piperidin-1-yl)methyl)phenyl)urea] | > 10 mg/kg
O=C(Nc1ccc(CN2CCC(CCc3ccccc3)(c3ccccn3)CC2)cc1)c1ccccc1 [Compound 24, N-(4-((4-phenethyl-4-(pyridin-2-yl)piperidin-1-yl)methyl)phenyl)benz-amide] | > 10 mg/kg
CNc1ccc(CN2CCC(CCc3ccccc3)(c3ccccn3)CC2)cc1 [Compound 25, N-methyl-4-((4-phenethyl-4-(pyridin-2-yl)piperidin-1-yl)methyl)aniline] | > 10 mg/kg
c1ccc(CCC2(c3ccccn3)CCN(Cc3ccccc3)CC2)cc1 [Compound 26, 2-(1-benzyl-4-phenethylpiperidin-4-yl)pyridine] | > 10 mg/kg
COC(=O)C1(CCc2ccccc2)CN(Cc2ccc(NC(C)=O)cc2)C1.Cl [Compound 27, methyl 1-(4-acetamidobenzyl)-3-phenethylazetidine-3-carboxylate HCl] | > 10 mg/kg
COC(=O)C1(CCc2ccccc2)CCN(Cc2ccc(NC(C)=O)cc2)C1 (centres unmarked) [Compound 28, methyl 1-(4-acetamidobenzyl)-3-phenethylpyrrolidine-3-carboxylate] | < 10 mg/kg
COC(=O)C1(CCc2ccccc2)CCCN(Cc2ccc(NC(C)=O)cc2)C1 (centres unmarked) [Compound 29, methyl 1-(4-acetamidobenzyl)-3-phenethylpiperidine-3-carboxylate] | > 10 mg/kg
CC(=O)Nc1ccc(CN2CCC(CCc3ccccc3)(c3ccccn3)C2)cc1 (centres unmarked) [Compound 30, N-(4-((3-phenethyl-3-(pyridin-2-yl)pyrrolidin-1-yl)methyl)phenyl)acetamide] | > 10 mg/kg
CC(=O)Nc1ccc(NN2CCC(CCc3ccccc3)(c3ccccn3)CC2)cc1 [Compound 31, N-(4-(4-phenethyl-4-(pyridin-2-yl)piperidin-1-ylamino)phenyl)acetamide] | > 10 mg/kg
CC(=O)Nc1ccc(CN2CCCC(CCc3ccccc3)(c3ccccn3)C2)cc1 (centres unmarked) [Compound 32, N-(4-((3-phenethyl-3-(pyridin-2-yl)piperidin-1-yl)methyl)phenyl)acetamide] | > 10 mg/kg
CC(=O)Nc1ccc(CN2CCC(/C=C/c3ccccc3)(c3ccccn3)CC2)cc1 [Compound 33, (E)-N-(4-((4-(pyridin-2-yl)-4-styrylpiperidin-1-yl)methyl)phenyl)acetamide] | > 10 mg/kg
CC(=O)Nc1ccc(CN2CCC(CCc3ccccc3)(c3nccn3C)CC2)cc1 [Compound 34, N-(4-((4-(1-methyl-1H-imidazol-2-yl)-4-phenethylpiperidin-1-yl)methyl)phenyl)acetamide] | > 10 mg/kg
CC(=O)NCCCCN1CCC(CCc2ccccc2)(c2ccccn2)CC1 [Compound 35, N-(4-(4-phenethyl-4-(pyridin-2-yl)piperidin-1-yl)butyl)acetamide] | > 10 mg/kg
CC(=O)NCCN1CCC(CCc2ccccc2)(c2ccccn2)CC1 [Compound 36, N-(2-(4-phenethyl-4-(pyridin-2-yl)piperidin-1-yl)ethyl)acetamide] | > 10 mg/kg
CC(=O)Nc1ccc(CN2CCC(CCc3ccccc3)(c3cccc(F)n3)CC2)cc1 [Compound 37, N-(4-((4-(6-fluoropyridin-2-yl)-4-phenethylpiperidin-1-yl)methyl)phenyl)acetamide] | > 10 mg/kg
COc1ccc(C2(CCc3ccccc3)CCN(Cc3ccc(NC(C)=O)cc3)CC2)nc1 [Compound 38, N-(4-((4-(5-methoxypyridin-2-yl)-4-phenethylpiperidin-1-yl)methyl)phenyl)acetamide] | > 10 mg/kg
CC(=O)Nc1ccc(CN2CCC(CCc3ccccc3)(Cc3ccccn3)CC2)cc1 [Compound 39, N-(4-((4-phenethyl-4-(pyridin-2-ylmethyl)piperidin-1-yl)methyl)phenyl)acetamide] | > 10 mg/kg
CC(=O)Nc1ccc(CN2CCC(/C=C/c3ccccc3)(c3ccncc3)CC2)cc1 [Compound 40, (E)-N-(4-((4-(pyridin-4-yl)-4-styrylpiperidin-1-yl)methyl)phenyl)acetamide] | > 10 mg/kg
Nc1ccc(CN2CCC(CCc3ccccc3)(c3ccccn3)CC2)cc1 [Compound 41, 4-((4-phenethyl-4-(pyridin-2-yl)piperidin-1-yl)methyl)aniline] | > 10 mg/kg
